Laboratory results: article PMC3779521 (Organic letters, 2013)

Tested on: CazF
Format: biochemical
Details: propargyl donor at MT domain; co-substrate acetoacetyl-SNAC (4)

## C#CC[Se+](CC[C@H](N)C(=O)O)C[C@H]1O[C@@H](n2cnc3c(N)ncnc32)[C@H](O)[C@@H]1O (stereo partly drawn) [compound 2, propargylic Se-adenosyl-L-methionine]
  Km: 43.6 µM
